Assay results published in patent US20260373226A1, “METHODS AND COMPOSITIONS FOR THE TREATMENT OF NEURODEGENERATIVE DISEASE” (Stealth BioTherapeutics Inc., priority 2022, published 2026).
Entries after “also recorded” stand apart in the source; their conditions may differ.

Legend:
[1] = test system: models of neurodegeneration; assay: In vivo effect brain concentration (in vitro-in vivo correlation)
Text: See Guatam M., Platform presentation. NEALS, 2022. […] See Keefe, et al. (2019); Gautam, et al. (2022); Guatam, et al. (2021). Gautam, et al., SBT-272 improved mitochondria structure and function and preserved upper motor neurons with TDP-43 pathology, Platform poster presentation, presented at NEALS poster session (2022); Bido, et al. (2021); Silva, et al. (2022); and Zariwala, et al., Effects of the mitochondria-targeting small molecule SBT-272 in the R6/2 transgenic mice of Huntington's Disease, Poster presented at Keystone Symposia poster Session, 2022.

[2] = Steady state PK in plasma, CSF, brain after 5 daily s.c. doses in rats; assay type: in vivo, male Sprague-Dawley rat; settings: rat, 10 mg/kg s.c., 5 daily doses
Description: Pharmacokinetic profile of SBT-272 in rat plasma, CSF, and brain (for FIG. 5A). The objective of this study was to evaluate the pharmacokinetics of SBT-272 in microdialysate from the prefrontal cortex (PFC) and striatum (STR), and in plasma and CSF of freely-moving adult male Sprague-Dawley rats. The experiments and the analysis were performed at Charles River Laboratories Den Bosch B.V., location Groningen (Groningen, the Netherlands).
Test items. Test compound was SBT-272. The molecular weight of SBT-272 is 607.75 g/mol in the salt-free form, and 717.13 g/mol in the salt form.
In vivo experiments: Animals. A total of six male Sprague-Dawley rats (309-329 g; CRL Sulzfeld, Germany) were used for the experiments. The experiments were conducted in strict accordance with the Guide for the Care and Use of Laboratory Animals (National Research Council 2011) and were in accordance with European Union directive 2010/63 and the Dutch law. The experiments were carried out under license number AVD23600202011187, issued by the national committee for licensing of animal experiments (Centrale Commissie Dierproeven) and were approved by the Animal Care and Use Committee (Instantie voor Dierenwelzijn) of Charles River Discovery Groningen.
Following arrival, animals were housed in groups of 5 in polycarbonate cages (56 X 33×20 cm) with wire mesh top in a temperature (22±2 °C) and humidity (55±15%) controlled environment on a 12 hour light cycle (07.00-19.00 h). After surgery, animals were housed individually (cages 30×30×40 cm). Standard diet (A04 mod. R/M-M, Ssniff, Germany) and domestic quality mains water were available ad libitum.
In vivo experiments: Surgery. Animals were anesthetized using isoflurane (2% and 800 mL/min 02). Before surgery, carprofen (5 mg/kg, s.c.) was administered for peri- and post-operative analgesia. A mixture of bupivacaine and epinephrine was applied to the incision site and periosteum of the skull for local analgesia.
In vivo experiments: Microdialysis probe implantation. Each animal was placed in a stereotaxic frame (Kopf instruments, USA). […]

[3] = Phase 1 clinical safety and tolerability in healthy volunteers; assay type: in vivo, human; settings: Phase 1, healthy volunteers, SC; interim data analysis
Text: The primary objective of this study is to evaluate the safety and tolerability of single and multiple ascending doses of SBT-272 administered via subcutaneous injection in healthy volunteers. The secondary objects of this study are to: (a) evaluate the plasma PK of SBT-272 in healthy volunteers following subcutaneous administration of single and multiple ascending doses; and (b) to determine an appropriate dose range for subsequence clinical evaluation.

## Cc1cc(O)cc(C)c1C[C@H](NC(=O)[C@H](N)CCCNC(=N)N)C(=O)N[C@@H](CCCCN)c1nc(Cc2ccccc2)no1 [SBT-272, (R)-2-amino-N—((S)-1-(((S)-5-amino-1-(3-benzyl-1,2,4-oxadiazol-5-yl)pentyl)amino)-3-(4-hydroxy-2,6-dimethylphenyl)-1-oxopropan-2-yl)-5-guanidinopentanamide]
[1]; FIG. 3B
  optimal in vivo effects, concentration: 10 to 100 nM
[1]; from in vitro and in vivo correlations
  brain concentration as a potential target for pharmacodynamic effect: 10 to 100 nM
[2]; brain, sc, read-out: brain:plasma ratio
  Kp: 178
[2]
  brain:CSF ratio: 182
  plasma:CSF ratio: 1.03
[3]
  safety profile: consistent safety profile; also recorded: generally safe
